Measurements from patent US5407918A, “16-membered macrolide derivatives and process for producing the same” (Meiji Seika Kaisha, Ltd., priority 1992, dated 1995).
In brackets after ≈: the same amount, converted by molar mass.

What was measured:
test strains = experiment: antimicrobial activity in vitro, comparison in words; format: cell-based; settings: for antimicrobial activity in vitro compared with MOM: data are not shown; for antimicrobial activity compared with LM-A7: except on Haemophilus influenzae, Tables 2 and 3
Protocol: (§1) Antimicrobial activities of the compounds of the present invention were determined by measuring minimum inhibitory concentration (MIC). Minimum inhibitory concentration was determined by the agar plate dilution method in the following manner.
(§2) Test strains were subjected to seed culture using Sensitivity test broth (STB, Nissui Pharmaceutical) except that the strains belonging to the genus Streptococcus, Branhamella and Haemophilus were cultured on blood agar plate. A 5 μl portion of cell suspension of the test strains having about 10^6 CFU/ml was inoculated into Sensitivity disk agar (SDA, Nissui Pharmaceutical) supplemented with 5% horse blood and incubated at 37° C. for 20 hours. Then, MIC was measured. For comparison, MDM and leucomycin A7 (LM-A7) was also tested.

Gram-positive bacteria = experiment: antimicrobial activity in vitro (summary in words); format: cell-based; settings: from Tables 2 and 3
Protocol: as §1, §2

E. coli NIHJ JC-2 = experiment: MIC, agar plate dilution method; format: cell-based; settings: Escherichia coli, NIHJJC2; E. coli NIHJ JC-2; 37° C., 20 hours; read-out: Antimicrobial activity (MIC)
Protocol: as §1, §2

S. aureus 209P JC-1 = experiment: MIC, agar plate dilution method; format: cell-based; settings: Staphylococcus aureus; S. aureus 209P JC-1; 37° C., 20 hours; read-out: Antimicrobial activity (MIC)
Protocol: as §1, §2

H. influenzae 9334 = experiment: MIC, agar plate dilution method; format: cell-based; settings: Haemophilus influenzae; H. influenzae 9334; 37° C., 20 hours; read-out: Antimicrobial activity (MIC)
Protocol: as §1, §2

H. influenzae Type b = experiment: MIC, agar plate dilution method; format: cell-based; settings: Haemophilus influenzae; H. influenzae Type b; 37° C., 20 hours; read-out: Antimicrobial activity (MIC)
Protocol: as §1, §2

S. Pneumoniae Type 1 = experiment: MIC, agar plate dilution method; format: cell-based; settings: Streptococcus pneumoniae; S. Pneumoniae Type 1; 37° C., 20 hours; read-out: Antimicrobial activity (MIC)
Protocol: as §1, §2

K. pneumoniae PC1602 = experiment: MIC, agar plate dilution method; format: cell-based; settings: Klebsiella pneumoniae, 37° C., 20 hours, read-out: Antimicrobial activity (MIC)
Protocol: as §1, §2

S. aureus M126 = experiment: MIC, agar plate dilution method; format: cell-based; settings: Staphylococcus aureus; S. aureus M126; 37° C., 20 hours; read-out: Antimicrobial activity (MIC)
Protocol: as §1, §2

S. aureus MS15026 = experiment: MIC, agar plate dilution method; format: cell-based; settings: Staphylococcus aureus, 37° C., 20 hours, read-out: Antimicrobial activity (MIC)
Protocol: as §1, §2

E. faecalis W-73 = experiment: MIC, agar plate dilution method; format: cell-based; settings: Enterococcus faecalis, W73; E. faecalis W-73; 37° C., 20 hours; read-out: Antimicrobial activity (MIC)
Protocol: as §1, §2

B. catarrhalis W-0500 = experiment: MIC, agar plate dilution method; format: cell-based; settings: Moraxella catarrhalis, W0500, 37° C., 20 hours, read-out: Antimicrobial activity (MIC)
Protocol: as §1, §2

S. epidermidis ATCC14990 = experiment: MIC, agar plate dilution method; format: cell-based; settings: Staphylococcus epidermidis, 37° C., 20 hours, read-out: Antimicrobial activity (MIC)
Protocol: as §1, §2

B. catarrhalis W-0506 = experiment: MIC, agar plate dilution method; format: cell-based; settings: Moraxella catarrhalis, W0506, 37° C., 20 hours, read-out: Antimicrobial activity (MIC)
Protocol: as §1, §2

M. luteus ATCC9341 = experiment: MIC, agar plate dilution method; format: cell-based; settings: Micrococcus luteus; M. luteus ATCC9341; 37° C., 20 hours; read-out: Antimicrobial activity (MIC)
Protocol: as §1, §2

S. aureus MS15009/pMS98 = experiment: MIC, agar plate dilution method; format: cell-based; settings: Staphylococcus aureus, MS15009/PMS98, 20 h, read-out: Antimicrobial activity (MIC)
Protocol: as §1, §2

S. pneumoniae IP692 = experiment: MIC, agar plate dilution method; format: cell-based; settings: Streptococcus pneumoniae; S. pneumoniae IP692; 37° C., 20 hours; read-out: Antimicrobial activity (MIC)
Protocol: as §1, §2

S. aureus M133 = experiment: MIC, agar plate dilution method; format: cell-based; settings: Staphylococcus aureus, 37° C., 20 hours, read-out: Antimicrobial activity (MIC)
Protocol: as §1, §2

S. Pyogenes Cook = experiment: MIC, agar plate dilution method; format: cell-based; settings: Streptococcus pyogenes, 37° C., 20 hours, read-out: Antimicrobial activity (MIC)
Protocol: as §1, §2

S. aureus MS15009/pMS99 = experiment: MIC, agar plate dilution method; format: cell-based; settings: Staphylococcus aureus, MS15009/PMS99, 20 h, read-out: Antimicrobial activity (MIC)
Protocol: as §1, §2

S. aureus MS15027 = experiment: MIC, agar plate dilution method; format: cell-based; settings: Staphylococcus aureus, 37° C., 20 hours, read-out: Antimicrobial activity (MIC)
Protocol: as §1, §2

[1] = concentration in serum after oral administration to mice, bioassay; format: in vivo, mice (Jcl:ICR)
Protocol: The compound (3) was mixed with a 0.2% solution of carboxymethylcellulose to give a concentration of 4 mg/ml and a 1 ml portion of the resulting emulsion was orally administered to 4-week-old male Jcl:ICR mice. Blood was collected from armpit of the mice 30, 60, 120, 240 and 360 minutes after the administration of the test compound (n=2). The collected blood was allowed to stand at room temperature for about 2 hours and centrifuged for 20 minutes with a centrifuge (KUBOTA KS-5000P) to obtain serum. To the serum was added an equivalent volume of 50% CH3 CN-50 mM phosphate (1:1 by volume) buffer (pH 7.0). The resulting mixture served as a serum sample. The concentration of the test compound in the serum sample was measured by the following bioassay method.
One hundred […] of the serum sample was poured into a hole made on a test plate containing 40 ml of MRAPJ medium (6 g/l peptone, 3 g/l yeast extract, 1.5 g/l meat extract, 1 g/l glucose and 15 g/l agar, pH 6.5) supplemented with a solution of M. Iuteus ATCC9341 (1%) and incubated at 32° C. for 18 hours and MIC was measured based on the calibration curve. MOM, MDM and RKM were also tested for comparison. […] Thus a long-pending problem of "low concentration in serum" of 16-membered macrolide antibiotics has been solved. […] Thus this compound is considered as a macrolide derivative showing new pharmacokinetics.
Further, a pharmacokinetics test on the compound (12) of the present invention is carried out in the same manner as described above. Namely, 200 mg/kg of the compound (12) is orally administered to mice and the concentration of this compound in the serum is determined by a bioassay method with the use of M. luteus as a test strain. […] The disadvantage of 16-membered ring macrolide antibiotics, which has been pointed out for a long time, has been thus overcome.

Row | Structure (SMILES) | antimicrobial activity in vitro compared with MOM (test strains) | antimicrobial activity compared with LM-A7 (test strains) | antimicrobial activity on Gram-positive bacteria (Gram-positive bacteria) | MIC (E. coli NIHJ JC-2) | MIC (S. aureus 209P JC-1) | MIC (H. influenzae 9334) | MIC (H. influenzae Type b) | MIC (S. Pneumoniae Type 1) | MIC (K. pneumoniae PC1602) | MIC (S. aureus M126) | MIC (S. aureus MS15026) | MIC (E. faecalis W-73) | MIC (B. catarrhalis W-0500) | MIC (S. epidermidis ATCC14990) | MIC (B. catarrhalis W-0506) | MIC (M. luteus ATCC9341) | MIC (S. aureus MS15009/pMS98) | MIC (S. pneumoniae IP692) | MIC (S. aureus M133) | MIC (S. Pyogenes Cook) | also measured
1 | CO[C@@H]1[C@@H](O[C@@H]2O[C@H](C)[C@@H](O[C@H]3C[C@@](C)(OC)[C@@H](OCCC(C)C)[C@H](C)O3)[C@H](N(C)C)[C@H]2O)[C@@H](CC=O)C[C@@H](C)[C@@H](O)/C=C/C=C/C[C@@H](C)OC(=O)C[C@H]1O [(12)] | clearly much superior to MOM | comparable or superior | strong antimicrobial activity | > 100 µg/mL | 0.1 µg/mL (≈ 0.127 µM) | 1.56 µg/mL (≈ 1.98 µM) | 6.25 µg/mL (≈ 7.95 µM) | 0.1 µg/mL (≈ 0.127 µM) | > 100 µg/mL | > 100 µg/mL | > 100 µg/mL | 0.39 µg/mL (≈ 0.496 µM) | 0.39 µg/mL (≈ 0.496 µM) | 0.39 µg/mL (≈ 0.496 µM) | 0.39 µg/mL (≈ 0.496 µM) | 0.05 µg/mL (≈ 0.0636 µM) | 0.2 µg/mL (≈ 0.254 µM) | 0.1 µg/mL (≈ 0.127 µM) | 0.39 µg/mL (≈ 0.496 µM) | 0.05 µg/mL (≈ 0.0636 µM) | MIC (S. aureus MS15009/pMS99): > 100 µg/mL; MIC (S. aureus MS15027): 0.39 µg/mL (≈ 0.496 µM); Cmax ([1]; mouse, serum, 200 mg/kg, M. luteus bioassay, read-out: maximum concentration in the serum): 11500 ng/mL; maximum concentration in the serum, comparison in words ([1]; versus clarythromycin (CAM) or other 16-membered macrolides): comparable to that of CAM
2 | CO[C@@H]1[C@@H](O[C@@H]2O[C@H](C)[C@@H](O[C@H]3C[C@@](C)(OC)[C@@H](OCc4ccccc4)[C@H](C)O3)[C@H](N(C)C)[C@H]2O)[C@@H](CC=O)C[C@@H](C)[C@@H](O)/C=C/C=C/C[C@@H](C)OC(=O)C[C@H]1O [(16)] | clearly much superior to MOM | comparable or superior | strong antimicrobial activity | > 100 µg/mL | 0.1 µg/mL (≈ 0.124 µM) | 3.13 µg/mL (≈ 3.88 µM) | 6.25 µg/mL (≈ 7.75 µM) | 0.1 µg/mL (≈ 0.124 µM) | > 100 µg/mL | > 100 µg/mL | > 100 µg/mL | 0.39 µg/mL (≈ 0.484 µM) | 0.78 µg/mL (≈ 0.968 µM) | 0.2 µg/mL (≈ 0.248 µM) | 0.78 µg/mL (≈ 0.968 µM) | 0.05 µg/mL (≈ 0.062 µM) | 0.2 µg/mL (≈ 0.248 µM) | 0.1 µg/mL (≈ 0.124 µM) | 0.39 µg/mL (≈ 0.484 µM) | 0.1 µg/mL (≈ 0.124 µM) | MIC (S. aureus MS15009/pMS99): > 100 µg/mL; MIC (S. aureus MS15027): 0.2 µg/mL (≈ 0.248 µM)
